# Experimental data taken from ChEMBL document CHEMBL5390237, “Discovery of Selective Histone Deacetylase 1 and 2 Inhibitors: Screening of a Focused Library Constructed by Click Chemistry, Kinetic Binding Analysis, and Biological Evaluation” (J Med Chem, 2023).
# Biological target: Histone deacetylase 2 (Homo sapiens, UniProt Q92769)
# Experiment: Inhibition of full-length recombinant human C-terminal GST tagged HDAC2 expressed in Sf9 insect cells using aminoluciferin peptide substrate at 100 nM preincubated for 3 hrs followed by substrate addition and measured after 30 mins by HDAC-Glo I/II chemiluminescence assay
# Conditions: time 3.5 hrs
# Histone deacetylase 2, sequence (Q92769 whole entry): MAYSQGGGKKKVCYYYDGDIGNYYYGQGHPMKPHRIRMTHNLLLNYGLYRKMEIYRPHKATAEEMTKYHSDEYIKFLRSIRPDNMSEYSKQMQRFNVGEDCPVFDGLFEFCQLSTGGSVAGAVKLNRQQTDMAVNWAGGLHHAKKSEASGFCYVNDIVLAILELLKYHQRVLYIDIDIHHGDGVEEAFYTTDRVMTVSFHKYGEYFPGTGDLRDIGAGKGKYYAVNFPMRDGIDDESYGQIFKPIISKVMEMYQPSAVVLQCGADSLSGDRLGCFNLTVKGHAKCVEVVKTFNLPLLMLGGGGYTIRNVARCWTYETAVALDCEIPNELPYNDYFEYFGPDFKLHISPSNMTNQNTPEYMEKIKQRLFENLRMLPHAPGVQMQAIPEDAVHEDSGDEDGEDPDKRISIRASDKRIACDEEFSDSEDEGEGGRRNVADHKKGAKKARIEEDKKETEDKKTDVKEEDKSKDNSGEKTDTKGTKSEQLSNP
row,SMILES,inhibition [%]
1,Nc1ccc(-c2ccccc2)cc1NC(=O)c1cn(CCCCCCC(=O)O)nn1,0
2,COc1ccc(Cn2cc(CCC(=O)Nc3cc(-c4cccnc4)ccc3N)nn2)cc1,10
3,COc1ccc(CCn2cc(-c3ccc(C(=O)Nc4cc(-c5cccs5)ccc4N)cc3)nn2)cc1,40
4,Nc1ccc(-c2cccs2)cc1NC(=O)c1cccc(-c2cn(CCC34CC5CC(CC(C5)C3)C4)nn2)c1,9
5,Nc1ccc(-c2cccs2)cc1NC(=O)CCc1cn(CCc2cccc(Cl)c2)nn1,9
6,Nc1ccc(-c2cccs2)cc1NC(=O)c1ccc(-c2cn(-c3ccc([N+](=O)[O-])cc3)nn2)s1,7
7,Nc1ccc(-c2ccc(F)cc2)cc1NC(=O)c1cn(CCCc2ccccc2)nn1,21
8,Nc1ccc(-c2cccs2)cc1NC(=O)c1ccc(-c2cn(CCCc3ccccc3)nn2)s1,16
9,Nc1ccc(-c2cccs2)cc1NC(=O)c1cn(CCc2ccc(Cl)cc2)nn1,0
10,Nc1ccc(-c2cccs2)cc1NC(=O)c1ccc(-c2cn(-c3ccc(Br)cc3)nn2)s1,0
11,Nc1ccc(-c2cccs2)cc1NC(=O)c1ccc(-c2cn(Cc3ccc(C(=O)O)cc3)nn2)cc1,42
12,Nc1ccc(-c2ccccc2)cc1NC(=O)c1cn(Cc2ccc3ccccc3n2)nn1,6
13,Nc1ccc(-c2cccnc2)cc1NC(=O)CCc1cn(CCc2c[nH]c3ccccc23)nn1,19
14,Cc1ccc(CCn2cc(CCC(=O)Nc3cc(-c4ccccc4)ccc3N)nn2)cc1,16
15,Nc1ccc(-c2ccccc2)cc1NC(=O)CCc1cn(-c2cccc3ccccc23)nn1,0
16,Nc1ccc(-c2ccccc2)cc1NC(=O)c1cn(Cc2cc3ccccc3s2)nn1,0
17,Nc1ccc(-c2ccc(F)cc2)cc1NC(=O)c1cn(Cc2nc3ccccc3[nH]2)nn1,37
18,Nc1ccc(-c2ccc(F)cc2)cc1NC(=O)CCc1cn(CCN2CCOCC2)nn1,0
19,Nc1ccc(-c2ccccc2)cc1NC(=O)c1cn(CCCCC(=O)O)nn1,0
20,Nc1ccc(-n2cc(C(=O)Nc3cc(-c4ccccc4)ccc3N)nn2)cc1,11
21,Nc1ccc(-c2ccccc2)cc1NC(=O)CCc1cn(Cc2ccc(C(=O)O)cc2)nn1,27
22,Nc1ccc(-c2cccs2)cc1NC(=O)c1ccc(-c2cn(Cc3nc4ccccc4[nH]3)nn2)s1,63
23,Cc1csc(CCn2cc(C(=O)Nc3cc(-c4ccccc4)ccc3N)nn2)n1,0
24,Nc1ccc(-c2cccs2)cc1NC(=O)c1cn(CCC2CCCC2)nn1,0

row,SMILES,inhibition [%]
1,Nc1ccc(-c2ccc(F)cc2)cc1NC(=O)CCc1cn(CC(=O)c2ccccc2)nn1,19
2,Nc1ccc(-c2cccs2)cc1NC(=O)c1cccc(-c2cn(CS(=O)(=O)c3ccccc3)nn2)c1,3
3,Nc1ccc(-c2ccsc2)cc1NC(=O)c1cn(CCc2ccccc2[N+](=O)[O-])nn1,2
4,Nc1ccc(-c2cccs2)cc1NC(=O)c1ccc(-c2cn(Cc3cccc4ccccc34)nn2)cc1,14
5,COc1ccc(-n2cc(-c3ccc(C(=O)Nc4cc(-c5cccs5)ccc4N)cc3)nn2)cc1,0
6,Nc1ccc(-c2ccc(F)cc2)cc1NC(=O)c1cn(CCc2ccccn2)nn1,16
7,Nc1ccc(-c2ccsc2)cc1NC(=O)c1cn(CCc2cccc(Cl)c2)nn1,0
8,Cc1ccccc1CCn1cc(CCC(=O)Nc2cc(-c3cccs3)ccc2N)nn1,13
9,Nc1ccc(-c2ccccc2)cc1NC(=O)c1cn(CCc2ccc(Cl)cc2)nn1,0
10,Nc1ccc(-c2ccsc2)cc1NC(=O)CCc1cn(CCc2cccc([N+](=O)[O-])c2)nn1,36
11,Nc1ccc(-c2cccnc2)cc1NC(=O)CCc1cn(CCc2ccc([N+](=O)[O-])cc2)nn1,3
12,Nc1ccc(-c2cccs2)cc1NC(=O)c1ccc(-c2cn(Cc3ccc(-c4ccccc4)cc3)nn2)s1,0
13,Nc1ccc(-c2ccccc2)cc1NC(=O)CCc1cn(Cc2ccc(OC(F)(F)F)cc2)nn1,0
14,Nc1ccc(-c2ccc(F)cc2)cc1NC(=O)c1cn(CC23CC4CC(CC(C4)C2)C3)nn1,0
15,Nc1ccc(-c2cccnc2)cc1NC(=O)CCc1cn(Cc2ccc(Oc3ccccc3)cc2)nn1,0
16,Nc1ccc(-c2ccsc2)cc1NC(=O)CCc1cn(CCc2ccccc2Cl)nn1,11
17,Nc1ccc(-c2cccs2)cc1NC(=O)c1ccc(-c2cn(CCc3ccc(C(=O)O)cc3)nn2)cc1,46
18,Nc1ccc(-c2ccsc2)cc1NC(=O)CCc1cn(Cc2ccc(Oc3ccccc3)cc2)nn1,0
19,Nc1ccc(-c2cccnc2)cc1NC(=O)CCc1cn(-c2ccc(O)cc2)nn1,0
20,Nc1ccc(-c2cccs2)cc1NC(=O)c1ccc(-c2cn(CCc3ccc([N+](=O)[O-])cc3)nn2)cc1,42
21,Nc1ccc(-c2ccsc2)cc1NC(=O)CCc1cn(C[S+]([O-])c2ccccc2)nn1 (stereo not given),8
22,Nc1ccc(-c2ccsc2)cc1NC(=O)CCc1cn(CCc2ccc([N+](=O)[O-])cc2)nn1,20
23,Nc1ccc(-c2ccccc2)cc1NC(=O)CCc1cn(CCc2ccccn2)nn1,0
24,Nc1ccc(-c2ccc(F)cc2)cc1NC(=O)c1cn(C[S+]([O-])c2ccccc2)nn1 (stereo not given),0

row,SMILES,inhibition [%]
1,Cc1csc(CCn2cc(CCC(=O)Nc3cc(-c4ccsc4)ccc3N)nn2)n1,39
2,Nc1ccc(-c2cccnc2)cc1NC(=O)CCc1cn(CCCCCCC(=O)O)nn1,0
3,CCc1ccc(Cn2cc(C(=O)Nc3cc(-c4cccs4)ccc3N)nn2)cc1,13
4,Cc1ccc(CCn2cc(C(=O)Nc3cc(-c4ccc(F)cc4)ccc3N)nn2)cc1,7
5,Nc1ccc(-c2ccsc2)cc1NC(=O)c1cn(CCc2ccc(C(F)(F)F)cc2)nn1,0
6,Nc1ccc(-c2ccccc2)cc1NC(=O)CCc1cn(Cc2ccc3ccccc3n2)nn1,18
7,Nc1ccc(-c2cccs2)cc1NC(=O)c1ccc(-c2cn(Cc3cc4ccccc4s3)nn2)cc1,0
8,Nc1ccc(-c2cccs2)cc1NC(=O)c1cn(CCN2CCc3ccccc3C2)nn1,18
9,Nc1ccc(-c2cccs2)cc1NC(=O)c1ccc(-c2cn(CS(=O)(=O)c3ccccc3)nn2)s1,44
10,Nc1ccc(-c2ccsc2)cc1NC(=O)c1cn(Cc2ccc(OC(F)(F)F)cc2)nn1,0
11,Cc1csc(CCn2cc(-c3ccc(C(=O)Nc4cc(-c5cccs5)ccc4N)s3)nn2)n1,74
12,Nc1ccc(-c2cccs2)cc1NC(=O)c1cn(CCCCCC(=O)O)nn1,0
13,Cc1cccc(C)c1NC(=O)Cn1cc(-c2ccc(C(=O)Nc3cc(-c4cccs4)ccc3N)s2)nn1,48
14,Nc1ccc(-c2ccccc2)cc1NC(=O)CCc1cn(CCC2CCCCC2)nn1,0
15,COc1ccccc1CCn1cc(CCC(=O)Nc2cc(-c3ccsc3)ccc2N)nn1,20
16,CCc1ccc(Cn2cc(C(=O)Nc3cc(-c4ccc(F)cc4)ccc3N)nn2)cc1,0
17,COc1ccc(Cn2cc(CCC(=O)Nc3cc(-c4ccsc4)ccc3N)nn2)cc1,24
18,Nc1ccc(-c2cccs2)cc1NC(=O)c1cn(-c2ccc(Br)cc2)nn1,0
19,Cc1ccccc1CCn1cc(-c2ccc(C(=O)Nc3cc(-c4cccs4)ccc3N)s2)nn1,14
20,Nc1ccc(-n2cc(-c3ccc(C(=O)Nc4cc(-c5cccs5)ccc4N)s3)nn2)cc1,44
21,COc1ccc(CCn2cc(CCC(=O)Nc3cc(-c4cccs4)ccc3N)nn2)cc1,21
22,Nc1ccc(-c2cccs2)cc1NC(=O)CCc1cn(CCN2CCc3ccccc3C2)nn1,14
23,Nc1ccc(-c2ccsc2)cc1NC(=O)CCc1cn(CCc2cccc3ccccc23)nn1,0
24,Nc1ccc(-c2ccc(F)cc2)cc1NC(=O)CCc1cn(CCc2ccsc2)nn1,16

row,SMILES,inhibition [%]
1,Nc1ccc(-c2cccs2)cc1NC(=O)c1ccc(-c2cn(Cc3ccc4ccccc4n3)nn2)s1,30
2,Nc1ccc(-c2cccnc2)cc1NC(=O)CCc1cn(CC(=O)Nc2ccc(F)cc2)nn1,0
3,Nc1ccc(-c2ccccc2)cc1NC(=O)c1cn(CCc2cccc(-c3ccccc3)c2)nn1,0
4,Cc1csc(CCn2cc(C(=O)Nc3cc(-c4ccc(F)cc4)ccc3N)nn2)n1,10
5,Nc1ccc(-c2ccsc2)cc1NC(=O)CCc1cn(CCc2ccc(C(=O)O)cc2)nn1,31
6,Nc1ccc(-c2cccnc2)cc1NC(=O)CCc1cn(CCC2CCCC2)nn1,0
7,Nc1ccc(-c2ccsc2)cc1NC(=O)c1cn(CCC2CCCC2)nn1,0
8,Nc1ccc(-c2cccs2)cc1NC(=O)CCc1cn(CCc2cccc3ccccc23)nn1,0
9,Nc1ccc(-c2cccs2)cc1NC(=O)c1cccc(-c2cn(CCc3ccc(F)cc3)nn2)c1,0
10,Nc1ccc(-c2cccs2)cc1NC(=O)CCc1cn(Cc2ccc3ccccc3n2)nn1,22
11,Nc1ccc(-c2ccsc2)cc1NC(=O)CCc1cn(CCCCC(=O)O)nn1,0
12,Nc1ccc(-c2ccsc2)cc1NC(=O)CCc1cn(Cc2ccc(-c3ccccc3)cc2)nn1,0
13,Nc1ccc(-c2ccc(F)cc2)cc1NC(=O)c1cn(CCC2CCCC2)nn1,0
14,Nc1ccc(-c2cccs2)cc1NC(=O)c1cn(CCc2ccc(F)cc2)nn1,0
15,Cc1ccc(CCn2cc(C(=O)Nc3cc(-c4ccsc4)ccc3N)nn2)cc1,8
16,Nc1ccc(-c2cccs2)cc1NC(=O)c1ccc(-c2cn(Cc3ccc(C(=O)O)cc3)nn2)s1,61
17,Cc1cccc(C)c1NC(=O)Cn1cc(CCC(=O)Nc2cc(-c3ccsc3)ccc2N)nn1,18
18,Nc1ccc(-c2cccs2)cc1NC(=O)CCc1cn(CC2CCCCC2)nn1,0
19,CCc1ccc(Cn2cc(CCC(=O)Nc3cc(-c4ccsc4)ccc3N)nn2)cc1,6
20,Nc1ccc(-c2ccccc2)cc1NC(=O)c1cn(-c2cccc3ccccc23)nn1,0
21,Nc1ccc(-c2ccsc2)cc1NC(=O)CCc1cn(CC(=O)Nc2ccc(F)cc2)nn1,14
22,Nc1ccc(-c2cccs2)cc1NC(=O)c1ccc(-c2cn(CCCCC(=O)O)nn2)s1,51
23,Cc1ccc(-n2cc(-c3ccc(C(=O)Nc4cc(-c5cccs5)ccc4N)s3)nn2)cc1C,0
